Experimental data: patent US12077503B2, “Substituted cyclic amides and their use as herbicides” (FMC CORPORATION, priority 2015, dated 2024)

How the values were obtained:
Format in all cases: in vivo
[1] = system: barnyardgrass (Echinochloa crus-galli); experiment: Test G Pre-Emergence Protocol; details: Echinochloa crus-galli, pre-emergence, 312 h, evaluated after 13 days; for pest or weed control at 15.625 g/ha: 15.625 g ai/ha; for pest or weed control at 15.625 g/ha / pest or weed control at 250 g/ha: read-out: Barnyardgrass damage rating (100=total damage to plant; 0=no damage to plant); for pest or weed control at 62.5 g/ha: 62.5 g ai/ha, 100=total damage to plant, 0=no damage to plant, read-out: Barnyardgrass damage rating; for pest or weed control at 250 g/ha: 250 g ai/ha
Procedure, shortened: (§1)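 Glasshouse pre-emergence test: soil-sown seeds, sprayed after 1 d at 15.625, 62.5 or 250 g/ha. Conditions 24/16° C day/night, 14 h light, 65% humidity, watering twice daily. Rating 13 d post-spray (100 = total damage).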

[2] = system: corn (Zea mays); experiment: Test G Pre-Emergence Protocol; details: Zea mays, pre-emergence, 312 h, evaluated after 13 days; for plant injury at 15.625 g/ha: 15.625 g ai/ha; for plant injury at 15.625 g/ha / plant injury at 250 g/ha: read-out: Corn damage rating (100=total damage to plant; 0=no damage to plant); for plant injury at 62.5 g/ha: 62.5 g ai/ha, 100=total damage to plant, 0=no damage to plant, read-out: Corn damage rating; for plant injury at 250 g/ha: 250 g ai/ha
Procedure, shortened: as §1

[3] = system: giant foxtail (Setaria faberi); experiment: Test G Pre-Emergence Protocol; details: Setaria faberi, pre-emergence, 312 h, evaluated after 13 days; for pest or weed control at 15.625 g/ha: 15.625 g ai/ha; for pest or weed control at 15.625 g/ha / pest or weed control at 250 g/ha: read-out: Foxtail, Giant damage rating (100=total damage to plant; 0=no damage to plant); for pest or weed control at 62.5 g/ha: 62.5 g ai/ha, 100=total damage to plant, 0=no damage to plant, read-out: Foxtail, Giant damage rating; for pest or weed control at 250 g/ha: 250 g ai/ha
Procedure, shortened: as §1

[4] = system: ivy-leaved morning glory (Ipomoea hederacea); experiment: Test G Pre-Emergence Protocol; details: Ipomoea, pre-emergence, 312 h, evaluated after 13 days; for pest or weed control at 15.625 g/ha: 15.625 g ai/ha; for pest or weed control at 15.625 g/ha / pest or weed control at 250 g/ha: read-out: Morningglory, Ivy-leaved damage rating (100=total damage to plant; 0=no damage to plant); for pest or weed control at 62.5 g/ha: 62.5 g ai/ha, 100=total damage to plant, 0=no damage to plant, read-out: Morningglory, Ivy-leaved damage rating; for pest or weed control at 250 g/ha: 250 g ai/ha
Procedure, shortened: as §1

[5] = system: redroot pigweed (Amaranthus retroflexus); experiment: Test G Pre-Emergence Protocol; details: Amaranthus retroflexus, pre-emergence, 312 h, evaluated after 13 days; for pest or weed control at 15.625 g/ha: 15.625 g ai/ha; for pest or weed control at 15.625 g/ha / pest or weed control at 250 g/ha: read-out: Pigweed, Redroot damage rating (100=total damage to plant; 0=no damage to plant); for pest or weed control at 62.5 g/ha: 62.5 g ai/ha, 100=total damage to plant, 0=no damage to plant, read-out: Pigweed, Redroot damage rating; for pest or weed control at 250 g/ha: 250 g ai/ha
Procedure, shortened: as §1

[6] = system: velvetleaf (Abutilon theophrasti); experiment: Test G Pre-Emergence Protocol; details: Abutilon theophrasti, pre-emergence, 312 h, evaluated after 13 days; for pest or weed control at 15.625 g/ha: 15.625 g ai/ha; for pest or weed control at 15.625 g/ha / pest or weed control at 250 g/ha: read-out: Velvetleaf damage rating (100=total damage to plant; 0=no damage to plant); for pest or weed control at 62.5 g/ha: 62.5 g ai/ha, 100=total damage to plant, 0=no damage to plant, read-out: Velvetleaf damage rating; for pest or weed control at 250 g/ha: 250 g ai/ha
Procedure, shortened: as §1

[7] = system: barnyardgrass (Echinochloa crus-galli); experiment: Test G Post-Emergence Protocol; details: Echinochloa crus-galli, post-emergence, 312 h, read-out: Barnyardgrass damage rating; for pest or weed control at 15.625 g/ha: 15.625 g ai/ha, evaluated after 13 days (100=total damage to plant; 0=no damage to plant); for pest or weed control at 62.5 g/ha: 62.5 g ai/ha; for pest or weed control at 62.5 g/ha / pest or weed control at 250 g/ha: evaluated after 13 days, 100=total damage to plant, 0=no damage to plant; for pest or weed control at 250 g/ha: 250 g ai/ha
Procedure, shortened: (§2)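 Values are percent visual injury at 13 days after treatment (0 none, 100 total). Treatment was a post-emergence spray at 15.625, 62.5 or 250 g/ha on 8-day-old pot plants kept at 24/16 °C.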

[8] = system: corn (Zea mays); experiment: Test G Post-Emergence Protocol; details: Zea mays, post-emergence, 312 h, read-out: Corn damage rating; for plant injury at 15.625 g/ha: 15.625 g ai/ha, evaluated after 13 days (100=total damage to plant; 0=no damage to plant); for plant injury at 62.5 g/ha: 62.5 g ai/ha; for plant injury at 62.5 g/ha / plant injury at 250 g/ha: evaluated after 13 days, 100=total damage to plant, 0=no damage to plant; for plant injury at 250 g/ha: 250 g ai/ha
Procedure, shortened: as §2

[9] = system: giant foxtail (Setaria faberi); experiment: Test G Post-Emergence Protocol; details: Setaria faberi, post-emergence, 312 h, read-out: Foxtail, Giant damage rating; for pest or weed control at 15.625 g/ha: 15.625 g ai/ha, evaluated after 13 days (100=total damage to plant; 0=no damage to plant); for pest or weed control at 62.5 g/ha: 62.5 g ai/ha; for pest or weed control at 62.5 g/ha / pest or weed control at 250 g/ha: evaluated after 13 days, 100=total damage to plant, 0=no damage to plant; for pest or weed control at 250 g/ha: 250 g ai/ha
Procedure, shortened: as §2

[10] = system: ivy-leaved morning glory (Ipomoea hederacea); experiment: Test G Post-Emergence Protocol; details: Ipomoea, post-emergence, 312 h, read-out: Morningglory, Ivy-leaved damage rating; for pest or weed control at 15.625 g/ha: 15.625 g ai/ha, evaluated after 13 days (100=total damage to plant; 0=no damage to plant); for pest or weed control at 62.5 g/ha: 62.5 g ai/ha; for pest or weed control at 62.5 g/ha / pest or weed control at 250 g/ha: evaluated after 13 days, 100=total damage to plant, 0=no damage to plant; for pest or weed control at 250 g/ha: 250 g ai/ha
Procedure, shortened: as §2

[11] = system: redroot pigweed (Amaranthus retroflexus); experiment: Test G Post-Emergence Protocol; details: Amaranthus retroflexus, post-emergence, 312 h, read-out: Pigweed, Redroot damage rating; for pest or weed control at 15.625 g/ha: 15.625 g ai/ha, evaluated after 13 days (100=total damage to plant; 0=no damage to plant); for pest or weed control at 62.5 g/ha: 62.5 g ai/ha; for pest or weed control at 62.5 g/ha / pest or weed control at 250 g/ha: evaluated after 13 days, 100=total damage to plant, 0=no damage to plant; for pest or weed control at 250 g/ha: 250 g ai/ha
Procedure, shortened: as §2

[12] = system: velvetleaf (Abutilon theophrasti); experiment: Test G Post-Emergence Protocol; details: Abutilon theophrasti, post-emergence, 312 h, read-out: Velvetleaf damage rating; for pest or weed control at 15.625 g/ha: 15.625 g ai/ha, evaluated after 13 days (100=total damage to plant; 0=no damage to plant); for pest or weed control at 62.5 g/ha: 62.5 g ai/ha; for pest or weed control at 62.5 g/ha / pest or weed control at 250 g/ha: evaluated after 13 days, 100=total damage to plant, 0=no damage to plant; for pest or weed control at 250 g/ha: 250 g ai/ha
Procedure, shortened: as §2

Row | SMILES | pest or weed control at 15.625 g/ha [1] [%] | pest or weed control at 62.5 g/ha [1] [%] | pest or weed control at 250 g/ha [1] [%] | plant injury at 15.625 g/ha [2] [%] | plant injury at 62.5 g/ha [2] [%] | plant injury at 250 g/ha [2] [%] | pest or weed control at 15.625 g/ha [3] [%] | pest or weed control at 62.5 g/ha [3] [%] | pest or weed control at 250 g/ha [3] [%] | pest or weed control at 15.625 g/ha [4] [%] | pest or weed control at 62.5 g/ha [4] [%] | pest or weed control at 250 g/ha [4] [%] | pest or weed control at 15.625 g/ha [5] [%] | pest or weed control at 62.5 g/ha [5] [%] | pest or weed control at 250 g/ha [5] [%] | pest or weed control at 15.625 g/ha [6] [%] | pest or weed control at 62.5 g/ha [6] [%] | pest or weed control at 250 g/ha [6] [%] | pest or weed control at 15.625 g/ha [7] [%] | pest or weed control at 62.5 g/ha [7] [%] | further results
1 | Cc1c(F)cccc1NC(=O)[C@@H]1C(=O)N(C)C[C@H]1c1cccc(OCC(F)(F)F)c1 (racemic) [Compound 1764] | 40 | 70 | 80 | 0 | 20 | 70 | 60 | 70 | 80 | 0 | 0 | 20 | 0 | 10 | 30 | 0 | 10 | 30 | 40 | 50 | pest or weed control at 250 g/ha [7]: 80%; plant injury at 15.625 g/ha [8]: 10%; plant injury at 62.5 g/ha [8]: 10%; plant injury at 250 g/ha [8]: 70%; pest or weed control at 15.625 g/ha [9]: 70%; pest or weed control at 62.5 g/ha [9]: 80%; pest or weed control at 250 g/ha [9]: 80%; pest or weed control at 15.625 g/ha [10]: 10%; pest or weed control at 62.5 g/ha [10]: 30%; pest or weed control at 250 g/ha [10]: 70%; pest or weed control at 15.625 g/ha [11]: 0%; pest or weed control at 62.5 g/ha [11]: 10%; pest or weed control at 250 g/ha [11]: 30%; pest or weed control at 15.625 g/ha [12]: 20%; pest or weed control at 62.5 g/ha [12]: 40%; pest or weed control at 250 g/ha [12]: 60%
2 | CC(C)Oc1cc(F)cc(C2CN(C)C(=O)C2C(=O)Nc2cccc(F)c2F)c1 (stereo not drawn) [Compound 1724] | 50 | 70 | 90 | 0 | 40 | 90 | 70 | 70 | 90 | 0 | 0 | 0 | 0 | 0 | 0 | 0 | 0 | 0 | 40 | 70 | pest or weed control at 250 g/ha [7]: 90%; plant injury at 15.625 g/ha [8]: 0%; plant injury at 62.5 g/ha [8]: 30%; plant injury at 250 g/ha [8]: 90%; pest or weed control at 15.625 g/ha [9]: 70%; pest or weed control at 62.5 g/ha [9]: 70%; pest or weed control at 250 g/ha [9]: 90%; pest or weed control at 15.625 g/ha [10]: 40%; pest or weed control at 62.5 g/ha [10]: 30%; pest or weed control at 250 g/ha [10]: 70%; pest or weed control at 15.625 g/ha [11]: 0%; pest or weed control at 62.5 g/ha [11]: 10%; pest or weed control at 250 g/ha [11]: 60%; pest or weed control at 15.625 g/ha [12]: 0%; pest or weed control at 62.5 g/ha [12]: 10%; pest or weed control at 250 g/ha [12]: 70%
